Assay results reported in patent US20260200926A1, “TREM2 MODULATORS” (Muna Therapeutics ApS, priority 2022, published 2026).
Read-outs that look alike come from different tables or passages of the source.

Biological target: T1, Human TREM2 (Homo sapiens, UniProt Q9NZC2)
T1 construct: expressed in transfected cells
Experiment: Human TREM2 activity: cellular phosphorylation of Syk (AlphaLISA SureFire Ultra p-SYK) in HEK293/DAP12+TREM2 stable cell line
Format: cell-based
Conditions: for Emax: HEK293; for EC50: phospho-Syk AlphaLISA signal, HEK293/DAP12+TREM2 cells, concentration giving 50% of maximal response, read-out: EC50
How it was run: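 HEK293 cells stably co-expressing human TREM2 and DAP12 were seeded at 10,000 cells/well and used 20–24 h later. Compounds were tested at 8 concentrations (top 100 μM, 1:6 steps, 0.5% DMSO) for 30 min at 37 °C. Syk phosphorylation at Tyr525/526 was read in lysates by AlphaLISA SureFire Ultra.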

[1] = maximal response relative to reference agonist example 1B (remaining examples), read-out: Emax

T1 sequence (Q9NZC2 19-230): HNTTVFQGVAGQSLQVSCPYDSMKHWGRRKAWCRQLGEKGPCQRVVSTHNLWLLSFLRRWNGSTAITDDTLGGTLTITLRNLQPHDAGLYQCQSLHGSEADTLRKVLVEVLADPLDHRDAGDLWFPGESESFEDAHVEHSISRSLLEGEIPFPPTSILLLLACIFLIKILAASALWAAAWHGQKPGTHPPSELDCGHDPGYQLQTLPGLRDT
T1 sequence (O43914 22-113 partner): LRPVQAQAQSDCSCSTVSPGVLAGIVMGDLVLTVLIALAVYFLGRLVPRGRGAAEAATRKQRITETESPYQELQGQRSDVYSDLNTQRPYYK

SMILES	Emax [1] [%]	EC50 [nM]	Emax [%]
Cc1nc2c(-c3ccc(C(F)(F)F)cc3F)nc(N3C[C@H](c4cnn(C)c4)OC(C)(C)C3)cc2c(=O)n1C (single isomer, unassigned) [Example 134B]	< 75	100 to 1000	
Cc1cc([C@@H]2CN(c3cc4c(=O)n(C)c(C)nc4c(-c4ccc(Cl)cc4F)n3)CCO2)ccn1 (single isomer, unassigned) [Example 135A]	75 to 110	1 to 10	
Cc1cc([C@H]2CN(c3cc4c(=O)n(C)c(C)nc4c(-c4ccc(Cl)cc4F)n3)CCO2)ccn1 (single isomer, unassigned) [Example 135B]	75 to 110	100 to 1000	
Cc1cc([C@@H]2CN(c3cc4c(=O)n(C)c(C)nc4c(-c4ccc(F)cc4F)n3)CCO2)ccn1 (single isomer, unassigned) [Example 136A]	75 to 110	1 to 10	
Cc1cc([C@H]2CN(c3cc4c(=O)n(C)c(C)nc4c(-c4ccc(F)cc4F)n3)CCO2)ccn1 (single isomer, unassigned) [Example 136B]	< 75	100 to 1000	
Cc1cc([C@@H]2CN(c3cc4c(=O)n(C)c(C)nc4c(-c4ccc(C(F)(F)F)cc4F)n3)CCO2)ccn1 (single isomer, unassigned) [Example 137A]	75 to 110	1 to 10	
Cc1cc([C@H]2CN(c3cc4c(=O)n(C)c(C)nc4c(-c4ccc(C(F)(F)F)cc4F)n3)CCO2)ccn1 (single isomer, unassigned) [Example 137B]	75 to 110	100 to 1000	
Cc1cc([C@@H]2CN(c3cc4c(=O)n(C)c(C)nc4c(-c4ccc(C(F)(F)F)nc4)n3)CCO2)ccn1 (single isomer, unassigned) [Example 138A]	> 110	10 to 100	
Cc1cc([C@H]2CN(c3cc4c(=O)n(C)c(C)nc4c(-c4ccc(C(F)(F)F)nc4)n3)CCO2)ccn1 (single isomer, unassigned) [Example 138B]	< 75	100 to 1000	
Cc1nc2c(-c3cc(F)c(F)cc3F)nc([C@@H]3CCO[C@H](c4cnn(C5CC5)c4)C3)cc2c(=O)n1C (single isomer, unassigned) [Example 139A]	75 to 110	10 to 100	
Cc1nc2c(-c3cc(F)c(F)cc3F)nc([C@H]3CCO[C@@H](c4cnn(C5CC5)c4)C3)cc2c(=O)n1C (single isomer, unassigned) [Example 139B]	< 75	100 to 1000	
Cc1nc2c(-c3ccc(Cl)cc3F)nc([C@@H]3CCO[C@H](c4cnn(C5CC5)c4)C3)cc2c(=O)n1C (single isomer, unassigned) [Example 140A]		100 to 1000	< 75
Cc1nc2c(-c3ccc(Cl)cc3F)nc([C@H]3CCO[C@@H](c4cnn(C5CC5)c4)C3)cc2c(=O)n1C (single isomer, unassigned) [Example 140B]		10 to 100	75 to 110
Cc1cc([C@@H]2CN(c3cc4c(=O)n(C)c(C)nc4c(-c4cc(F)c(F)cc4F)n3)CCO2)ccn1 (single isomer, unassigned) [Example 141A]	75 to 110	10 to 100	
Cc1cc([C@H]2CN(c3cc4c(=O)n(C)c(C)nc4c(-c4cc(F)c(F)cc4F)n3)CCO2)ccn1 (single isomer, unassigned) [Example 141B]	75 to 110	10 to 100	

Second part, led by results:

Emax [1] [%]	EC50 [nM]	SMILES	Emax [%]
< 75	100 to 1000	Cc1nc2c(-c3ccc(Cl)cc3F)cc(N3C[C@@H](c4cnn(C)c4)OC(C)(C)C3)nc2c(=O)n1C (single isomer, unassigned) [Example 142A]	
75 to 110	10 to 100	Cc1nc2c(-c3ccc(Cl)cc3F)cc(N3C[C@H](c4cnn(C)c4)OC(C)(C)C3)nc2c(=O)n1C (single isomer, unassigned) [Example 142B]	
75 to 110	1 to 10	Cc1nc2c(-c3ccc(C(F)(F)F)cc3F)nc(N3C[C@@H](c4cnn(C)c4)OC4(CCC4)C3)cc2c(=O)n1C (single isomer, unassigned) [Example 143A]	
< 75	100 to 1000	Cc1nc2c(-c3ccc(C(F)(F)F)cc3F)nc(N3C[C@H](c4cnn(C)c4)OC4(CCC4)C3)cc2c(=O)n1C (single isomer, unassigned) [Example 143B]	
75 to 110	1 to 10	Cc1nc2c(-c3ccc(Cl)cc3F)nc(N3C[C@@H](c4cnn(C)c4)OC4(CC4)C3)cc2c(=O)n1C (single isomer, unassigned) [Example 144A]	
< 75	10 to 100	Cc1nc2c(-c3ccc(Cl)cc3F)nc(N3C[C@H](c4cnn(C)c4)OC4(CC4)C3)cc2c(=O)n1C (single isomer, unassigned) [Example 144B]	
75 to 110	1 to 10	Cc1nc2c(-c3ccc(C(F)(F)F)cc3F)nc(N3C[C@@H](c4cnn(C)c4)OC4(CC4)C3)cc2c(=O)n1C (single isomer, unassigned) [Example 145A]	
< 75	10 to 100	Cc1nc2c(-c3ccc(C(F)(F)F)cc3F)nc(N3C[C@H](c4cnn(C)c4)OC4(CC4)C3)cc2c(=O)n1C (single isomer, unassigned) [Example 145B]	
75 to 110	10 to 100	Cc1nc2c(-c3cc(F)c(F)cc3F)nc(N3C[C@@H](c4cnn(C)c4)OC4(CC4)C3)cc2c(=O)n1C (single isomer, unassigned) [Example 146A]	
< 75	> 1000	Cc1nc2c(-c3cc(F)c(F)cc3F)nc(N3C[C@H](c4cnn(C)c4)OC4(CC4)C3)cc2c(=O)n1C (single isomer, unassigned) [Example 146B]	
< 75	10 to 100	Cc1nc2c(-c3ccc(Cl)cc3F)nc(N3C[C@@H](c4cnn(C)n4)OC(C)(C)C3)cc2c(=O)n1C (single isomer, unassigned) [Example 147A]	
75 to 110	100 to 1000	Cc1nc2c(-c3ccc(Cl)cc3F)nc(N3C[C@H](c4cnn(C)n4)OC(C)(C)C3)cc2c(=O)n1C (single isomer, unassigned) [Example 147B]	
< 75	> 1000	Cc1nc2c(-c3ccc(Cl)cc3F)nc([C@@H]3C[C@@H]3c3cnn(C)c3)cc2c(=O)n1C (single isomer, unassigned) [Example 148A]	
< 75	> 1000	Cc1nc2c(-c3ccc(Cl)cc3F)nc([C@@H]3C[C@H]3c3cnn(C)c3)cc2c(=O)n1C (single isomer, unassigned) [Example 148B]	
75 to 110	< 1	Cc1nc2c(-c3ccc(Cl)cc3F)nc(N3C[C@@H](c4cnn(C)c4)OC(F)(F)C3)nc2c(=O)n1C (single isomer, unassigned) [Example 149A]	
< 75	10 to 100	Cc1nc2c(-c3ccc(Cl)cc3F)nc(N3C[C@H](c4cnn(C)c4)OC(F)(F)C3)nc2c(=O)n1C (single isomer, unassigned) [Example 149B]	
75 to 110	10 to 100	Cc1nc2c(-c3cc(F)c(F)cc3F)nc(N3C[C@@H](c4cnn(C)c4)OC(C)(C)C3)cc2c(=O)n1C (single isomer, unassigned) [Example 150A]	
< 75	> 1000	Cc1nc2c(-c3cc(F)c(F)cc3F)nc(N3C[C@H](c4cnn(C)c4)OC(C)(C)C3)cc2c(=O)n1C (single isomer, unassigned) [Example 150B]	
